Data as given in patent publication US9441238B2, “Compositions and methods for modulating the sensitivity of cells to AHAS inhibitors” (SYNTHETIC GENOMICS, INC., priority 2012, dated 2016).

Columns and labels:
Nannochloropsis sp. = experiment: Growth inhibition of Nannochloropsis by herbicide in growth media; assay type: cell-based
AHAS = details: previously reported, several organisms; cited from earlier work

Structure (SMILES): COC(=O)c1ccccc1S(=O)(=O)NC(=O)Nc1nc(C)nc(OC)n1 [metsulfuron methyl]
- growth of Nannochloropsis sp. (Nannochloropsis sp.): strongly inhibited
- concentration that could be used to effectively suppress wild-type growth (Nannochloropsis sp.; wild-type): 30 µM
- inhibitor of AHAS activity (AHAS): potent inhibitor
